Literature values as cited in patent US20060182688A1, “Metronidazole-based tinted topical pharmaceutical compositions” (GALDERMA S.A., priority 2003, published 2006).

Test system: rosacea

Cc1ncc([N+](=O)[O-])n1CCO [metronidazole, 1-(2-hydroxyethyl)-2-methyl-5-nitroimidazole]
effect on erythema (200 mg twice a day): ineffective | effect on the papules and pustules of rosacea (200 mg twice a day): had therapeutic effects | action on the clinical signs such as erythema, telangiectasia or redness (rosacea): no action | effect against the papules and pustules (rosacea): effective | effect on the inflammatory lesions (rosacea): effectively improves
